Patent US5149631A, “Compound marked with tritium, its preparation and its use in the location of nuclear receptors of retinoids” (Centre International de Recherches Dermatologiques Galderma …, priority 1989, dated 1992)

Legend:
[1] = test system: retinoic acid nuclear receptors (RARs); assay: Fixing on nuclear receptors RARs in nucleosol of F9 cells, analysed by HPSEC; format: binding, murin; details: for molecules of ligand fixed to the RARs per cell (HPSEC peak surface standardized to number of cells): F9 cells, 20 nM tritiated ligand
Experimental: Cultures of F9 cells of murin embryonic carcinoma (normally four 90 mm dishes containing in total 4-7×10^7 cells per incubation condition) were washed once with pBS (saline phosphate buffer) and incubated for 3 hours in a medium, without serum, supplemented with the marked retinoic homolog (to verify the specifity). The cells were then detached with a trypsin-EDTA mixture and numbered with a Burker hemocytometer. […] 50 μl of marked extract were injected on a 9×250 mm GF 250 column (Dupont de Nemours). The elution was carried out in a buffer 0.3M KH2 PO4, pH 7.8 at a rate of 1 ml/min. The protein content was followed by measuring the optical density at 280 nm. 28 fractions of 0.3 ml each were collected and counted in Picofluor (Packard) scintillating agent. For each retinoid concentration, the number of bonded molecules was determined using the surface of the radioactivity peak and the calculated concentration of demisaturation (C50). The molecular weight calibration of the column was carried out using human albumin (67 kDa), ovalbumin (45 kDa) and myoglobin (16.8 kDa). The dose-response curves and the competition curves were analyzed on a computer through nonlinear regression using the various forms of the Clark equation.

[2] = molecular target: T1, CRABP (cellular retinoic acid binding protein) (Rattus norvegicus, UniProt P62966); assay: Direct fixing on CRABP binding protein in rat testicle cytosol, Sephadex G25 separation
T1 construct: rat testicle cytosol containing CRABP; from tissue; host or cells: rat testicle homogenate / cytosol
T1 sequence (P62966 whole entry): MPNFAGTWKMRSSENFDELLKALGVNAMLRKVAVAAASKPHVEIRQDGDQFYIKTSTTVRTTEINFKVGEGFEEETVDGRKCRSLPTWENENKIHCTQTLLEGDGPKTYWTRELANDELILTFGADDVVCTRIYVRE
Experimental: The difference ( -- ) represents the specific bond.
The total fixing non-specific+specific ( .circle.-- .circle.) is obtained by incubation of increasing concentration (up to a maximum of […]) of the claimed compound with a constant quantity (0.3 ml) of a rat testicle homogenate (CRABP-rich organ). The non-specific fixing of the tritiated compound is determined in parallel, by measuring the fixing with increasing concentrations of the radioactive ligand in the presence of a large excess (1 μm) of cold homolog ligand (.quadrature.--.quadrature.). An incubation time of two hours is necessary for the establishment of balanced conditions.
The elution is done directly in scintillation tubes and the radioactivity is measured by counting.
The difference between the total fixing curve ( .circle.-- .circle.) and non-specific fixing (.quadrature.--.quadrature.) gives the specific fixing curve ( -- ). Analysis of this curve provides the dissociation constant at equilibrium (Kd) which is the concentration of the product required for 50% saturation of CRABP. This constant is a measurement of the affinity of the ligand for its bonding protein, Kd being inversely proportional to affinity (the smaller the Kd, the greater the affinity).

specific fixing on CRABP ([2]; rat testicle homogenate, increasing concentrations of tritiated ligand, with or without 1 μm cold homolog ligand, two hours incubation)	SMILES	specificity of fixing on RARs (about 45 kDa radioactivity peak) ([1]; F9 cells incubated with 20 nM tritiated ligand, co-incubation with an excess of 1000 times of cold compound I)	molecules of ligand fixed to the RARs per cell (HPSEC peak surface standardized to number of cells) [1]	fixing on RARs in the presence of excess cold ligand ([1]; F9 cells incubated with 20 nM tritiated retinoic acid, excess of 100 times of cold retinoic acid)	nature of the specific fixing on CRABP ([2]; rat testicle cytosol)	non-specific fixing as share of the total fixing ([2]; rat testicle cytosol, in the range of concentrations employed)
no specific fixing	[3H]c1cc(-c2ccc3cc(C(=O)O)ccc3c2[3H])cc(C23CC4CC(CC(C4)C2)C3)c1OC [Example 1, 6-[3-(1-adamantyl)-4-methoxyphenyl]-2-naphthoic acid marked with tritium]	specific	approximately 4,000 molecules per cell	–	–	–
–	CC1=C(/C=C/C(C)=C/C=C/C(C)=C/C(=O)O)C(C)(C)CCC1 [retinoic acid]	–	approximately 4,000 molecules per cell	inhibited	saturable and reversible	less than 20%
